Results: patent publication US12473263B2, “Bicyclic inhibitors of CBX chromodomains” (Icahn School of Medicine At Mount Sinai, priority 2019, dated 2025)
Each block holds one molecule with its values, some of them ahead of it.

Key:
[1] = test system: PC3 cells; test: MTT assay for cell viability; format: cell-based; conditions: doses of 0, 1, 2.5, 3.75, 5.0, 8.0 micromolar
Description: The MTT assay is used to measure cellular metabolic activity as an indicator of cell viability, proliferation and cytotoxicity. This colorimetric assay is based on the reduction of a yellow tetrazolium salt (3-(4,5-dimethylthiazol-2-yl)-2,5-diphenyltetrazolium bromide or MTT) to purple formazan crystals by metabolically active cells. The viable cells contain NAD(P)H-dependent oxidoreductase enzymes which reduce the MTT to formazan. The insoluble formazan crystals are dissolved using 1-Propanol as a solubilization solution and the resulting purple colored solution is quantified by measuring absorbance at 570 nanometers (nm) using a multi-well spectrophotometer.
Protocol for MTT Assay: 100,000 PC3 cells were seeded per-well (CRL-1435, ATCC) for each dose of treatment 24 hours before treatment. Cells were quantitated with Countess II Cell Counter (AMQAX1000, Thermofisher Scientific). Cells were maintained at 37° C. with 5% CO2. SMAPs (dissolved in DMSO) were diluted to a stock concentration of 10 mM. Dilutions to the needed concentrations were made in DMEM (SH30022FS, Hyclone, GE Healthcare Life Sciences). Cells were treated with appropriate concentrations of compound. After 24 hours, MTT solution (M5655-1G, Sigma-Aldrich) was added to cells. Formazan crystals of metabolically active cells were dissolved with 1-Propanol (A414-500, ThermoFisher Scientific) and the solution was measured by absorbance at 570 nm (SpectraMax M5e, Molecular Devices).
Examples 1-3, 7-31, and 33-41 have also been studied in the above-described MTT assay for cell viability at four dose treatments (0, 2.5, 5.0, 10.0 micromolar).

[2] = molecular target: (Homo sapiens, UniProt O95931); test: Fluorescence anisotropy (FP) competition binding assay; conditions: 10 nM FAM-ANRIL as probe
Description: Fluorescence Anisotropy Binding Assay
Expression and purification of the first bromodomain (BrD1) of human BRD4 in poly-His tag form was performed using a procedure described in the literature [See Zeng et al. Structure 16, 643-652 (2008) and Zhang et al., J Biol Chem 287, 28840-28851 (2012).] The protein was purified by using affinity chromatography on a nickel-IDA column (Invitrogen), followed by the removal of poly-His tag by thrombin cleavage.
Measurements were obtained after 1 hour incubation of the fluorescent ligand and the protein at 25° C. with Safire 2 microplate reader (Tecan). In the assay, fluorescent ligand concentration was ≤2Kd, and protein concentration was set at which 50-80% of fluorescent ligand is bound. Dissociation constant of a competing ligand was calculated with the correction to Cheng-Prussoff equation introduced by Nicolovska-Coleska and colleagues [Nikolovska-Coleska, Z. et al., Anal Biochem 332, 261-273 (2004). Assuming one-site competitive binding model, the equation used to calculate K1's from IC50 values recovered from fitting data using Prism:
where [I50] is the concentration of free inhibitor at 50% inhibition, [L50], the concentration of free labeled ligand at 50% inhibition, and [P0], concentration of free protein at 0% inhibition. Note that Kd for each protein-probe pair is the limit of resolvable K1 in a competition assay.

[3] = molecular target: CBX7ChD (Homo sapiens (Human), UniProt O95931); conditions: cited from earlier work
[4] = test system: p16INK4a in prostate cancer cells; conditions: cited from earlier work
[5] = Homo sapiens, PC-3, 24 hours treatment

Sequence of (Homo sapiens, UniProt O95931) (O95931 whole entry, looked up): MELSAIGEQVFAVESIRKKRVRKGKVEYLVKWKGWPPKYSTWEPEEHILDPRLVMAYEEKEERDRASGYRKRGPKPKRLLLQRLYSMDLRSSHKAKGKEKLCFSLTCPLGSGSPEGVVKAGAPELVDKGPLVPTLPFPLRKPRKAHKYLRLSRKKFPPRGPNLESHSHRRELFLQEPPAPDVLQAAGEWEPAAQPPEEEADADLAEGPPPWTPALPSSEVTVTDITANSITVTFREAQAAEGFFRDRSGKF
Sequence of CBX7ChD (O95931 11-69): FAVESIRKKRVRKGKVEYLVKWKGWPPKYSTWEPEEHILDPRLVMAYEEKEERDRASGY

IC50 [1, 5]: 884 nM
Structure (SMILES): Cc1ccccc1Cn1c(=N)n(CC(O)c2ccc(Cl)c(Cl)c2)c2ccc(F)cc21 (stereo not drawn) [Example 2, 1-(3,4-dichlorophenyl)-2-(5-fluoro-2-imino-3-(2-methylbenzyl)-2,3-dihydro-1H-benzo[d]imidazol-1-yl)ethan-1-ol]

IC50 [1, 5]: 1840 nM
Structure (SMILES): N=c1n(Cc2cn(Cc3ccccc3F)nn2)c2ccccc2n1CC(O)c1ccc(Cl)c(Cl)c1 (stereo not drawn) [Example 10, 1-(3,4-dichlorophenyl)-2-(3-((1-(2-fluorobenzyl)-1H-1,2,3-triazol-4-yl)methyl)-2-imino-2,3-dihydro-1H-benzo[d]imidazol-1-yl)ethan-1-ol]

IC50 [1, 5]: 1120 nM
Structure (SMILES): N=c1n(Cc2cn(-c3ccccc3)nn2)c2cc(Cl)ccc2n1CC(O)c1ccc(Cl)c(Cl)c1 (stereo not drawn) [Example 35, 2-(5-chloro-2-imino-3-((1-phenyl-1H-1,2,3-triazol-4-yl)methyl)-2,3-dihydro-1H-benzo[d]imidazol-1-yl)-1-(3,4-dichlorophenyl)ethanol]

IC50 [1, 5]: 776 nM
Structure (SMILES): Cc1ccccc1Cn1c(=N)n(CC(O)c2ccc(Cl)c(Cl)c2)c2ccc(Cl)cc21 (stereo not drawn) [Example 3, 2-(5-chloro-2-imino-3-(2-methylbenzyl)-2,3-dihydro-1H-benzo[d]imidazol-1-yl)-1-(3,4-dichlorophenyl)ethan-1-ol]

Structure (SMILES): Cc1ccc(Cn2cc(Cn3c(=N)n(CC(O)c4ccc(Cl)c(Cl)c4)c4ccccc43)nn2)cc1 (stereo not drawn) [Example 9, 1-(3,4-dichlorophenyl)-2-(2-imino-3-((1-(4-methylbenzyl)-1H-1,2,3-triazol-4-yl)methyl)-2,3-dihydro-1H-benzo[d]imidazol-1-yl)ethan-1-ol]
Kd [2]: 0.108 µM
IC50 ([1]; 24 hours treatment): 900 nM

Structure (SMILES): C#CCn1c(=N)n(CC(O)c2ccc(Cl)c(Cl)c2)c2ccccc21 (stereo not drawn) [Example 6, 1-(3,4-dichlorophenyl)-2-(2-imino-3-(prop-2-yn-1-yl)-2,3-dihydro-1H-benzo[d]imidazol-1-yl)ethan-1-ol]
Kd [2]: 1.53 µM

Structure (SMILES): Cc1ccccc1Cn1c(=N)n(CC(O)c2ccc(Cl)c(Cl)c2)c2ccccc21.Cl (stereo not drawn) [MS351]
selectivity for CBX7ChD (over CBX2/4/6/8) [3]: selective for CBX7ChD
de-repression of p16INK4a [4]: de-repress
